Measured values taken from PMC3764917 (Journal of medicinal chemistry, 2012).
Where a name gives a salt, the structure may show the parent alone.

What was measured:
ovine COX-1 = target: T1, ovine COX-1 (Ovis aries, UniProt P05979); test: COX activity, commercial enzyme immunoassay kit
T1 sequence (P05979 25-600): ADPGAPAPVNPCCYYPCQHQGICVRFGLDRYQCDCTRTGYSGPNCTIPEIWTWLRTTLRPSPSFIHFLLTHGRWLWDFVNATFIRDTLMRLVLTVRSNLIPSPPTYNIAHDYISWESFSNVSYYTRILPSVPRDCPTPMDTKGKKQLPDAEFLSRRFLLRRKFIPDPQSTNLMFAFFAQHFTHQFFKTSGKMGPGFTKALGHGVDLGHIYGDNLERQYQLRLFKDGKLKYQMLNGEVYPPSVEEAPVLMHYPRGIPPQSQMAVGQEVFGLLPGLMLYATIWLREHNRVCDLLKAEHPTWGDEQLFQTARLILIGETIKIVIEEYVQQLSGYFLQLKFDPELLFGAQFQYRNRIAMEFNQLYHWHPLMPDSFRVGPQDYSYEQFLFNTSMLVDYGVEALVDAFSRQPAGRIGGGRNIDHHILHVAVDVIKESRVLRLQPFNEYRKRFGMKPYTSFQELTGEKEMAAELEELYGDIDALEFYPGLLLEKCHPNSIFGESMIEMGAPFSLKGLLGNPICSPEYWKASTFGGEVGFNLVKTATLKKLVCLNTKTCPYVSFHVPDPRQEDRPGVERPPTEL

FAAH = target: T2, FAAH (Rattus norvegicus, UniProt P97612); test: FAAH activity: [3H]anandamide hydrolysis by total rat brain homogenates; type: biochemical
T2 sequence (P97612 1-579): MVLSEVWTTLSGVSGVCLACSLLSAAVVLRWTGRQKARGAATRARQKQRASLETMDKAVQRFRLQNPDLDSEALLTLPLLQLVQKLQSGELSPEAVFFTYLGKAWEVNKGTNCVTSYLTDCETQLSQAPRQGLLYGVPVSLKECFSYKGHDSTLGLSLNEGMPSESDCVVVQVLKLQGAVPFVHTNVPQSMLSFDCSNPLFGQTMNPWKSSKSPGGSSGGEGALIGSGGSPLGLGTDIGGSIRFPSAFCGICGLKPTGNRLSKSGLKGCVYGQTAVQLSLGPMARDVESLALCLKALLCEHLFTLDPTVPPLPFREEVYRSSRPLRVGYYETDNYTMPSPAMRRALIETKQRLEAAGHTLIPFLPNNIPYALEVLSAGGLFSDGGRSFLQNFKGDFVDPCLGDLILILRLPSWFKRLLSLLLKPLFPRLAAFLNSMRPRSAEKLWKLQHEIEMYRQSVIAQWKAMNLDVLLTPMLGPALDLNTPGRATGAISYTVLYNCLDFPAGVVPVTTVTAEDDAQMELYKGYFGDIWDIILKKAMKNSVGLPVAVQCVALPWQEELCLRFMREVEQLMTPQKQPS

human COX-2 = target: T3, human COX-2 (Homo sapiens, UniProt P35354); test: COX activity, commercial enzyme immunoassay kit
T3 sequence (P35354 18-604): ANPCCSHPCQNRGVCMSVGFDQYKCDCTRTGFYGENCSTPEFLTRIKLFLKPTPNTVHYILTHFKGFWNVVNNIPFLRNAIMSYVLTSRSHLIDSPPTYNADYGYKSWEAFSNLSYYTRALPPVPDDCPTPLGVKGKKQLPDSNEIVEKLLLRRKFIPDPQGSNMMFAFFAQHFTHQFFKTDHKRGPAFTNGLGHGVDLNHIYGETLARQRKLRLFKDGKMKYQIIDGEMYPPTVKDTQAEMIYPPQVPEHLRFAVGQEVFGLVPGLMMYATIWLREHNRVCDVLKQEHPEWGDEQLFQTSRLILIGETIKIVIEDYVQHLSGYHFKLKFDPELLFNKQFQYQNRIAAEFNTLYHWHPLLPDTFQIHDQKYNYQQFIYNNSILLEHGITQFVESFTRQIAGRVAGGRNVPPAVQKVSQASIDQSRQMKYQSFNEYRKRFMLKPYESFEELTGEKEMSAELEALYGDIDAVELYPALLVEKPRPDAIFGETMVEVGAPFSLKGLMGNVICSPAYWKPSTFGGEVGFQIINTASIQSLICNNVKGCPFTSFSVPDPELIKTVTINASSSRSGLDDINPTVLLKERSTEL

[1] = humans; cited from earlier work
COX-2 = conditions: oxygen electrode assay, arachidonic acid as substrate; cited from earlier work

Compound	COX-1 inhibition, result in words (ovine COX-1)	COX-2 inhibition, result in words (human COX-2)	further results
CC(=O)n1c2ccc(Cl)cc2c2ccc(C(C)C(=O)O)cc21 (centres unmarked) [Compound 15a, 2-(9-acetyl-6-chloro-9H-carbazol-2-yl)propanoic acid]	did not show any inhibitory potency	did not show any inhibitory potency	FAAH inhibition, result in words (FAAH): did not show any inhibitory potency
CC(C(=O)O)c1ccc2c3cc(Cl)ccc3n(C(=O)c3ccc(Cl)c(Cl)c3)c2c1 (centres unmarked) [Compound 15h, 2-(6-chloro-9-(3,4-dichlorobenzoyl)-9H-carbazol-2-yl)propanoic acid]	total loss of activity	total loss of activity	FAAH inhibition, result in words (FAAH): total loss of activity
CC(C)Cc1ccc(C(C)C(=O)O)cc1 (centres unmarked) [ibuprofen, reference compound]			FAAH inhibition, result in words (FAAH): very weak
COc1ccccc1Cn1c2ccc(Cl)cc2c2ccc(C(C)C(=O)O)cc21 (centres unmarked) [Compound 6g, 2-(6-chloro-9-(2-methoxybenzyl)-9H-carbazol-2-yl)propanoic acid]			FAAH activity at 30 μM, result in words (FAAH; 30 μM): no activity
CC(C(=O)O)c1ccc2c(c1)[nH]c1ccc(Cl)cc12 (centres unmarked) [Compound 1, carprofen]			ulcerogenic side effects compared to other NSAIDs [1]: reduced ulcerogenic side effects
COC(=O)C(C)c1ccc2c(c1)[nH]c1ccc(Cl)cc12 (centres unmarked) [Compound 3, Methyl 2-(6-chloro-9H-carbazol-2-yl)propanoate]	lack of activity	lack of activity	
CC(C(=O)NCCO)c1ccc2c(c1)[nH]c1ccc(Cl)cc12 (centres unmarked) [Compound 4a, 2-(6-chloro-9H-carbazol-2-yl)-N-(2-hydroxyethyl)propanamide]	lack of activity	lack of activity	
CNC(=O)n1c2ccc(Cl)cc2c2ccc(C(C)C(=O)O)cc21 (centres unmarked) [Compound 10b, 2-[6-chloro-9-(methylcarbamoyl)carbazol-2-yl]propanoic acid]			FAAH inhibition, result in words (FAAH): no inhibition
CC(C(=O)O)c1ccc2c3cc(Cl)ccc3n(C(=O)c3c[nH]cn3)c2c1 (centres unmarked) [Compound 15j, 2-(6-chloro-9-(1H-imidazole-4-carbonyl)-9H-carbazol-2-yl)propanoic acid hydrochloride]		no relevant inhibition	IC50 (FAAH): 6 µM
CC(C(=O)Nc1ccccc1)c1ccc2c(c1)[nH]c1ccc(Cl)cc12 (centres unmarked) [Compound 4b, 2-(6-chloro-9H-carbazol-2-yl)-N-phenylpropanamide]	lack of activity	lack of activity	
CC(C(=O)O)c1ccc2c(c1)[nH]c1ccccc12 (centres unmarked) [Compound 2, 2-(9H-carbazol-2-yl)propanoic acid]			IC50 (FAAH): 5 µM
CCCCCCNC(=O)n1c2ccc(Cl)cc2c2ccc(C(C)C(=O)O)cc21 (centres unmarked) [Compound 10a, 2-(6-chloro-9-(hexylcarbamoyl)-9H-carbazol-2-yl)propanoic acid]			IC50 (FAAH): 3 µM
CC(C(=O)O)c1ccc2c3cc(Cl)ccc3n(Cc3ccccc3)c2c1 (centres unmarked) [Compound 6b, 2-(9-benzyl-6-chloro-9H-carbazol-2-yl)propanoic acid]			increase in FAAH potency compared to 1 (FAAH; ratio of FAAH IC50 values versus compound 1): 3 fold
Cc1cccnc1NC(=O)C(C)c1ccc(CC(C)C)cc1 (centres unmarked) [ibu-am5, N-(3-methylpyridin-2-yl)-2-(4-isobutylphenyl)-propionamide]			COX-2 inhibition, result in words (COX-2): inactive
CC(C(=O)O)c1ccc2c3cc(Cl)ccc3n(C(=O)c3ccccc3Cl)c2c1 (centres unmarked) [Compound 15g, 2-(6-chloro-9-(2-chlorobenzoyl)-9H-carbazol-2-yl)propanoic acid]	lost	lost	
COc1ccc(C(=O)n2c3ccc(Cl)cc3c3ccc(C(C)C(=O)O)cc32)cc1 (centres unmarked) [Compound 15e, 2-(6-chloro-9-(4-methoxybenzoyl)-9H-carbazol-2-yl)propanoic acid]	did not inhibit	did not inhibit	
CCCCCCOC(=O)n1c2ccc(Cl)cc2c2ccc(C(C)C(=O)O)cc21 (centres unmarked) [Compound 12, 2-(6-chloro-9-((hexyloxy)carbonyl)-9H-carbazol-2-yl)propanoic acid]			weaker potency against FAAH compared to 10a (FAAH; ratio of FAAH IC50 values versus 10a): 10 fold
CC(C(=O)O)c1ccc2c3cc(Cl)ccc3n(C(=O)c3cscn3)c2c1 (centres unmarked) [Compound 15k, 2-(6-chloro-9-(thiazole-4-carbonyl)-9H-carbazol-2-yl)propanoic acid]	detrimental	detrimental	FAAH inhibition, result in words (FAAH): detrimental
CC(C(=O)O)c1ccc2c3cc(Cl)ccc3n(C(=O)c3ccc(F)cc3)c2c1 (centres unmarked) [Compound 15d, 2-(6-chloro-9-(4-fluorobenzoyl)-9H-carbazol-2-yl)propanoic acid]	did not inhibit	did not inhibit	
CC(C(=O)O)c1ccc2c3cc(Cl)ccc3n(C(=O)c3cccc(Cl)c3)c2c1 (centres unmarked) [Compound 15f, 2-(6-chloro-9-(3-chlorobenzoyl)-9H-carbazol-2-yl)propanoic acid]	lost	lost	
CCCCNC(=O)n1c2ccc(Cl)cc2c2ccc(C(C)C(=O)O)cc21 (centres unmarked) [Compound 10c, 2-(9-(butylcarbamoyl)-6-chloro-9H-carbazol-2-yl)propanoic acid]			FAAH inhibition, result in words (FAAH): no inhibition
